This passage reports Ki and IC50 results from ChEMBL document CHEMBL1132641, “Structure-activity relationships for a class of inhibitors of purine nucleoside phosphorylase” (J Med Chem, 1999).

Test in all cases: biochemical
Experiment [1] concerns the target T1, Purine nucleoside phosphorylase (Bos taurus, UniProt P55859).
T1 sequence (P55859 whole entry): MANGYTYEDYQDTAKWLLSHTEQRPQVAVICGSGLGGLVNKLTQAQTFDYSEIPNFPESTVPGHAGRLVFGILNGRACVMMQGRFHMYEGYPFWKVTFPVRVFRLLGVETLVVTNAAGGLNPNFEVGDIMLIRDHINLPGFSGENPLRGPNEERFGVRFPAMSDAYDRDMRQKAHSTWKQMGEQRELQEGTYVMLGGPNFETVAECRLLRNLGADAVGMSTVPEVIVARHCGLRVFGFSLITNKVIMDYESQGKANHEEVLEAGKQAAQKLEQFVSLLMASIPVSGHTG
Description: Inhibitory activity against calf spleen purine nucleoside phosphorylase (PNP) using 2-amino-6-mercapto-7-methyl purine ribonucleoside (MESG) as substrate.

The target of experiment [2] is T1, Purine nucleoside phosphorylase. This is another data set of the same source.
Description: (§1) Inhibitory activity against calf spleen purine nucleoside phosphorylase (PNP) using inosine as substrate at a concentration of 10 uM.
Experiment [3] shares this target. The source holds these as a separate data set.
Description: as §1

Regarding `Nc1nc(O)c2[nH]cc(Cc3ccc(O)cc3)c2n1`, the Ki in experiment [1] came out at 0.035 µM; in experiment [2], 0.109 µM. Also, inhibition in experiment [3] was half-maximal at 0.239 µM (IC50).

As for `Nc1nc2c(Cc3cccc(Cl)c3)c[nH]c2c(=O)[nH]1`, the Ki was determined as 0.0043 µM in experiment [1] and 0.0189 µM in experiment [2]. In experiment [3], this molecule registered an IC50 of 0.0258 µM.

On to `Nc1nc2[nH]c(N)nc2c(=O)[nH]1` [8-AMINOGUANINE], for which the figures for the Ki in experiment [1] and in experiment [2] were 0.681 µM and 0.982 µM, respectively. Moreover, the IC50 in experiment [3] amounted to 2.3 µM.

As for `Nc1nc2c(Cc3cccnc3)c[nH]c2c(=O)[nH]1` [PELDESINE], the Ki was 0.0031 µM in experiment [1] and 0.0135 µM in experiment [2]. In experiment [3], this molecule displayed an IC50 of 0.027 µM.

For the molecule `Nc1nc2c(Cc3ccc(-c4ccccc4)cc3)c[nH]c2c(=O)[nH]1`, the IC50 in experiment [3] came to 0.546 µM.

As to `Nc1nc2c(Cc3ccncc3)c[nH]c2c(=O)[nH]1`, the Ki in experiment [1] came out at 0.0169 µM; in experiment [2], 0.0254 µM. For the same molecule, the midpoint of inhibition in experiment [3], the IC50, lay at 0.0635 µM.

Turning to `Nc1nc(O)c2[nH]cc(C3=CCCCC3)c2n1`, the Ki in experiment [1] stood at 0.5 µM; in experiment [2] it was 0.862 µM. For the same molecule, inhibition in experiment [3] was half-maximal at 1.97 µM (IC50).

`Oc1[nH]cnc2c(Cc3ccccc3)cnc1-2`: the Ki in experiment [1] came out at 0.0054 µM; in experiment [2] it was 0.0187 µM. This molecule registered an IC50 in experiment [3] of 0.0245 µM.

In turn, `Nc1nc2c(Cc3ccccn3)c[nH]c2c(=O)[nH]1` showed an IC50 in experiment [3] of 0.0153 µM.

As for `Nc1nc2c(Cc3ccc(OCc4ccccc4)cc3)c[nH]c2c(=O)[nH]1`, the Ki came to 0.0203 µM in experiment [1] and 0.0378 µM in experiment [2]. In experiment [3], this molecule came in with an IC50 of 0.124 µM.

On to `N#CCC(c1cccc(Cl)c1)c1c[nH]c2c(=O)[nH]c(N)nc12` (centres undefined), for which the Ki in experiment [1] came out at 0.0046 µM. The molecule further returned an IC50 in experiment [3] of 0.0163 µM.

As for `Nc1nc(O)c2nc(N)n(Cc3cccs3)c2n1`, the results for the Ki in experiment [1] and in experiment [2] were 0.0207 µM and 0.0357 µM, respectively. The same molecule showed an IC50 in experiment [3] of 0.0694 µM.

In the case of `Oc1ncn(Cc2ccccc2)c2ncnc1-2`, in experiment [2], the Ki is 24.6 µM. In experiment [3], this molecule returned an IC50 of 49.6 µM.

Molecule `N#CCC(c1cccnc1)c1cnc2c(O)[nH]cnc1-2` (centres undefined) had an IC50 in experiment [3] of 0.0389 µM.

Turning to `Nc1nc(O)c2[nH]cc(C(CC(=O)O)c3ccccc3)c2n1` (centres undefined), the inhibition constant (Ki) in experiment [1] stood at 0.061 µM; in experiment [2], 0.009 µM. This molecule also yielded an IC50 in experiment [3] of 0.0468 µM.

`Nc1nc(O)c2[nH]cc(Cc3ccccc3Cl)c2n1`: the Ki was found to be 0.0144 µM in experiment [1] and 0.065 µM in experiment [2]. Moreover, in experiment [3], half-maximal inhibition (IC50) was put at 0.103 µM.

With `CC1CCCC(Cc2c[nH]c3c(=O)[nH]c(N)nc23)C1` (centres undefined), the Ki in experiment [1] was determined as 0.0033 µM; in experiment [2] it was 0.0114 µM. In experiment [3], this molecule yielded an IC50 of 0.0192 µM.

In the case of `Nc1nc(O)c2[nH]cc(C3CCCCC3)c2n1`, the Ki was 0.333 µM in experiment [1] and 0.335 µM in experiment [2]. The same molecule yielded an IC50 in experiment [3] of 0.64 µM.

As to `CC(C)c1ccc(Cc2c[nH]c3c(=O)[nH]c(N)nc23)cc1`, the IC50 in experiment [3] is 0.0966 µM.

Consider `Nc1nc(O)c2[nH]c(N)c(CC3CCCCC3)c2n1`, for which the Ki in experiment [1] came to 0.766 µM; in experiment [2], 0.885 µM. The molecule also showed a 50% inhibitory concentration (IC50) in experiment [3] of 1.47 µM.

As for `Nc1nc(O)c2[nH]cc(Cc3ccsc3)c2n1`, the Ki came to 0.0035 µM in experiment [1] and 0.0156 µM in experiment [2]. In experiment [3], this molecule returned an IC50 of 0.0226 µM.

For `Cc1nc2c(O)[nH]c(N)nc-2c1Cc1ccccc1`, the Ki in experiment [1] is 67.5 µM; in experiment [2], 10.3 µM. The molecule further came in with an IC50 in experiment [3] of 20.2 µM.

Molecule `Nc1nc(O)c2[nH]cc(Oc3ccccc3)c2n1` gave an IC50 in experiment [3] of 0.0415 µM.

For `Nc1nc2c(Cc3cnccc3Cl)c[nH]c2c(=O)[nH]1`, the Ki in experiment [1] is 0.0356 µM; in experiment [2], 0.0667 µM. The IC50 in experiment [3] is 0.135 µM.

For the molecule `Nc1nc2c(CC3CCCS3)c[nH]c2c(=O)[nH]1` (centres undefined), the Ki in experiment [1] came to 0.006 µM; in experiment [2], 0.0085 µM. Also, the IC50 in experiment [3] was found to be 0.0174 µM.

As for `Nc1nc2c(Cc3ccccc3O)c[nH]c2c(=O)[nH]1`, the Ki in experiment [1] worked out at 0.0318 µM; in experiment [2], 0.084 µM. Moreover, in experiment [3], the IC50 came out at 0.182 µM.

Regarding `Nc1nc2c(CC3CCCC3)c[nH]c2c(=O)[nH]1`, the Ki stood at 0.0062 µM in experiment [1] and 0.0091 µM in experiment [2]. It took 0.0202 µM to reach half-maximal inhibition in experiment [3] (IC50).

A word on the Ki: it is a dissociation constant, usually derived from enzyme kinetics or from competition with a known ligand. A high value points to a looser hold on the target. Usually IC50 stands for the concentration that inhibits the measured activity by half.
